The record followed here is the supplement of paper PMC10307832.

Experiment in all cases: relative viability (nuclei count vs DMSO), 5 days (fraction); higher = more cells survive
Compound in the assay “IU1-47 + Navitoclax”: CC1=CC(=C(N1C2=CC=C(C=C2)Cl)C)C(=O)CN3CCCCC3 [IU1-47] + CC1(C)CCC(c2ccc(Cl)cc2)=C(CN2CCN(c3ccc(C(=O)NS(=O)(=O)c4ccc(N[C@H](CCN5CCOCC5)CSc5ccccc5)c(S(=O)(=O)C(F)(F)F)c4)cc3)CC2)C1 [Navitoclax] (partner 0.5 µM)
The method in brief:
(§1)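 Medians of duplicate plates are given as relative viability. That measure is the nuclei count in treated wells divided by the count in vehicle wells. Counts were taken on 4× images of lung cancer cell lines in 1536-well plates, 5 days after pin-tool dosing the day after seeding with one drug alone or a fixed anchor-drug dose plus five library-drug doses (not always all listed) in √10 steps.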

Compound in the assay “IU1-47 + OSI-027”: CC1=CC(=C(N1C2=CC=C(C=C2)Cl)C)C(=O)CN3CCCCC3 [IU1-47] + COc1cccc2cc(-c3nc([C@H]4CC[C@H](C(=O)O)CC4)n4ncnc(N)c34)[nH]c12 [OSI-027] (partner 0.5 µM)
The method in brief: as §1

Compound in the assay “FG-4592 + Linsitinib”: Cc1nc(C(=O)NCC(=O)O)c(O)c2ccc(Oc3ccccc3)cc12 [FG-4592] + C[C@]1(O)C[C@@H](c2nc(-c3ccc4ccc(-c5ccccc5)nc4c3)c3c(N)nccn32)C1 [Linsitinib] (partner 1 µM)
The method in brief:
as §1

Compound in the assay “FG-4592 + Tozasertib”: Cc1nc(C(=O)NCC(=O)O)c(O)c2ccc(Oc3ccccc3)cc12 [FG-4592] + Cc1cc(Nc2cc(N3CCN(C)CC3)nc(Sc3ccc(NC(=O)C4CC4)cc3)n2)n[nH]1 [Tozasertib] (partner 0.1 µM)
The method in brief: as §1

In the case of UMC-11, the relative viability is 0.297 with IU1-47 + Navitoclax (first compound 0.08 µM); 0.315 with IU1-47 + Navitoclax (first compound 0.253 µM); 0.329 with IU1-47 + Navitoclax (first compound 0.8 µM); 0.349 in the assay with IU1-47 + Navitoclax (first compound 2.53 µM); 0.313 in the assay with IU1-47 + Navitoclax (first compound 8 µM); 0.498 in the assay with IU1-47 + OSI-027 (first compound 0.08 µM). In addition, the relative viability with IU1-47 + OSI-027 (first compound 0.253 µM) was found to be 0.43; with IU1-47 + OSI-027 (first compound 0.8 µM), 0.523; with IU1-47 + OSI-027 (first compound 2.53 µM), 0.611; with IU1-47 + OSI-027 (first compound 8 µM) it was 0.465; in the assay with FG-4592 + Linsitinib (first compound 0.08 µM) it was 0.974; in the assay with FG-4592 + Linsitinib (first compound 0.253 µM), 0.93. Further, the relative viability with FG-4592 + Linsitinib (first compound 0.8 µM) came to 0.933; with FG-4592 + Linsitinib (first compound 2.53 µM), 1.06; with FG-4592 + Linsitinib (first compound 8 µM), 0.87; in the assay with FG-4592 + Tozasertib (first compound 0.08 µM), 0.217; with FG-4592 + Tozasertib (first compound 0.253 µM), 0.184; with FG-4592 + Tozasertib (first compound 0.8 µM) it was 0.199. The relative viability came to 0.203 with FG-4592 + Tozasertib (first compound 2.53 µM) and 0.198 in the assay with FG-4592 + Tozasertib (first compound 8 µM).
